Experimental data taken from patent US12398101B2, “Herbicidal 2-azaspiro[3-5]nonane compounds” (SYNGENTA CROP PROTECTION AG, priority 2018, dated 2025).

Assays:
Type in all cases: in vivo
Conditions in all cases: 250 g/h, evaluated after 13 days
[1] = test system: Setaria faberi (SETFA); assay: Glasshouse herbicide test, pre-emergence application
Method: (§1) Seeds of a variety of test species are sown in standard soil in pots (Lolium perenne (LOLPE), Setaria faberi (SETFA), Echinochloa crus-galli (ECHCG), Avena fatua (AVEFA)). After cultivation for one day (pre-emergence) or after 8 days cultivation (post-emergence) under controlled conditions in a glasshouse (at 24/16° C., day/night; 14 hours light; 65% humidity), the plants are sprayed with an aqueous spray solution derived from the formulation of the technical active ingredient in acetone/water (50:50) solution containing 0.5% Tween 20 (polyoxyethelyene sorbitan monolaurate, CAS RN 9005-64-5). Compounds are applied at 250 g/h. The test plants are then grown in a glasshouse under controlled conditions in a glasshouse (at 24/16° C., day/night; 14 hours light; 65% humidity) and watered twice daily. After 13 days for pre and post-emergence, the test is evaluated for the percentage damage caused to the plant. The biological activities are shown in the following table on a five point scale (5=80-100%; 4=60-79%; 3=40-59%; 2=20-39%; 1=0-19%).

[2] = test system: Echinochloa crus-galli (ECHCG); assay: as above
Method: as §1

[3] = test system: Lolium perenne (LOLPE); assay: as above
Method: as §1

[4] = test system: Avena fatua (AVEFA); assay: as above
Method: as §1

[5] = test system: Setaria faberi (SETFA); assay: Glasshouse herbicide test, post-emergence application
Method: as §1

[6] = test system: Echinochloa crus-galli (ECHCG); assay: as above
Method: as §1

[7] = test system: Lolium perenne (LOLPE); assay: as above
Method: as §1

[8] = test system: Avena fatua (AVEFA); assay: as above
Method: as §1

CC#Cc1cc(C)c(C2C(=O)CC3(CC2=O)CN(C(=O)NC(=O)c2ccccn2)C3)c(C)c1 [Compound 1.011]
percentage damage caused to the plant, five point scale, SETFA [1]: 3 (3=40-59%)
percentage damage caused to the plant, five point scale, ECHCG [2]: 2 (2=20-39%)
percentage damage caused to the plant, five point scale, LOLPE [3]: 2 (2=20-39%)
percentage damage caused to the plant, five point scale, AVEFA [4]: 1 (1=0-19%)
percentage damage caused to the plant, five point scale, SETFA [5]: 5 (5=80-100%)
percentage damage caused to the plant, five point scale, ECHCG [6]: 3 (3=40-59%)
percentage damage caused to the plant, five point scale, LOLPE [7]: 3 (3=40-59%)
percentage damage caused to the plant, five point scale, AVEFA [8]: 3 (3=40-59%)

CC#Cc1cc(Cl)c(C2C(=O)CC3(CC2=O)CN(C(=O)c2ccccc2)C3)c(OC)c1 [Compound 1.201]
percentage damage caused to the plant, five point scale, SETFA [1]: 5 (5=80-100%)
percentage damage caused to the plant, five point scale, ECHCG [2]: 5 (5=80-100%)
percentage damage caused to the plant, five point scale, LOLPE [3]: 5 (5=80-100%)
percentage damage caused to the plant, five point scale, AVEFA [4]: 5 (5=80-100%)
percentage damage caused to the plant, five point scale, SETFA [5]: 5 (5=80-100%)
percentage damage caused to the plant, five point scale, ECHCG [6]: 5 (5=80-100%)
percentage damage caused to the plant, five point scale, LOLPE [7]: 5 (5=80-100%)
percentage damage caused to the plant, five point scale, AVEFA [8]: 5 (5=80-100%)

CC#Cc1cc(C)c(C2C(=O)CC3(CC2=O)CN(C(=O)C(F)F)C3)c(C)c1 [Compound 1.009]
percentage damage caused to the plant, five point scale, SETFA [1]: 5 (5=80-100%)
percentage damage caused to the plant, five point scale, ECHCG [2]: 5 (5=80-100%)
percentage damage caused to the plant, five point scale, LOLPE [3]: 5 (5=80-100%)
percentage damage caused to the plant, five point scale, AVEFA [4]: 5 (5=80-100%)
percentage damage caused to the plant, five point scale, SETFA [5]: 5 (5=80-100%)
percentage damage caused to the plant, five point scale, ECHCG [6]: 5 (5=80-100%)
percentage damage caused to the plant, five point scale, LOLPE [7]: 5 (5=80-100%)
percentage damage caused to the plant, five point scale, AVEFA [8]: 5 (5=80-100%)

CC#Cc1cc(C)c(C2C(=O)CC3(CC2=O)CN(C(=O)C2CC2)C3)c(C)c1 [Compound 1.008, 2-(cyclopropanecarbonyl)-7-(2,6-dimethyl-4-prop-1-ynyl-phenyl)-2-azaspiro[3.5]nonane-6,8-dione]
percentage damage caused to the plant, five point scale, SETFA [1]: 5 (5=80-100%)
percentage damage caused to the plant, five point scale, ECHCG [2]: 5 (5=80-100%)
percentage damage caused to the plant, five point scale, LOLPE [3]: 5 (5=80-100%)
percentage damage caused to the plant, five point scale, AVEFA [4]: 5 (5=80-100%)
percentage damage caused to the plant, five point scale, SETFA [5]: 5 (5=80-100%)
percentage damage caused to the plant, five point scale, ECHCG [6]: 5 (5=80-100%)
percentage damage caused to the plant, five point scale, LOLPE [7]: 5 (5=80-100%)
percentage damage caused to the plant, five point scale, AVEFA [8]: 5 (5=80-100%)

CC#Cc1cc(C)c(C2C(=O)CC3(CC2=O)CN(C(=O)NC(C)(C)C)C3)c(OC)c1 [Compound 1.018]
percentage damage caused to the plant, five point scale, SETFA [1]: 5 (5=80-100%)
percentage damage caused to the plant, five point scale, ECHCG [2]: 5 (5=80-100%)
percentage damage caused to the plant, five point scale, LOLPE [3]: 5 (5=80-100%)
percentage damage caused to the plant, five point scale, AVEFA [4]: 5 (5=80-100%)
percentage damage caused to the plant, five point scale, SETFA [5]: 5 (5=80-100%)
percentage damage caused to the plant, five point scale, ECHCG [6]: 5 (5=80-100%)
percentage damage caused to the plant, five point scale, LOLPE [7]: 5 (5=80-100%)
percentage damage caused to the plant, five point scale, AVEFA [8]: 5 (5=80-100%)

CC#Cc1cc(C)c(C2C(=O)CC3(CC2=O)CN(C(=O)NC(=O)C(C)(C)C)C3)c(C)c1 [Compound 1.007]
percentage damage caused to the plant, five point scale, SETFA [1]: 5 (5=80-100%)
percentage damage caused to the plant, five point scale, ECHCG [2]: 5 (5=80-100%)
percentage damage caused to the plant, five point scale, LOLPE [3]: 5 (5=80-100%)
percentage damage caused to the plant, five point scale, AVEFA [4]: 3 (3=40-59%)
percentage damage caused to the plant, five point scale, SETFA [5]: 4 (4=60-79%)
percentage damage caused to the plant, five point scale, ECHCG [6]: 5 (5=80-100%)
percentage damage caused to the plant, five point scale, LOLPE [7]: 5 (5=80-100%)
percentage damage caused to the plant, five point scale, AVEFA [8]: 4 (4=60-79%)

CC#Cc1cc(C)c(C2=C(OC(=O)OC)CC3(CC2=O)CN(C(C)=O)C3)c(C)c1 [Compound 2.001, 2-acetyl-7-(2,6-dimethyl-4-prop-1-ynyl-phenyl)-6-oxo-2-azaspiro[3.5]non-7-en-8-yl] methyl carbonate]
percentage damage caused to the plant, five point scale, SETFA [1]: 5 (5=80-100%)
percentage damage caused to the plant, five point scale, ECHCG [2]: 5 (5=80-100%)
percentage damage caused to the plant, five point scale, LOLPE [3]: 5 (5=80-100%)
percentage damage caused to the plant, five point scale, AVEFA [4]: 5 (5=80-100%)
percentage damage caused to the plant, five point scale, SETFA [5]: 5 (5=80-100%)
percentage damage caused to the plant, five point scale, ECHCG [6]: 5 (5=80-100%)
percentage damage caused to the plant, five point scale, LOLPE [7]: 5 (5=80-100%)
percentage damage caused to the plant, five point scale, AVEFA [8]: 5 (5=80-100%)

CC#Cc1cc(C)c(C2C(=O)CC3(CC2=O)CN(C(=O)C2CC2)C3)c(OC)c1 [Compound 1.020]
percentage damage caused to the plant, five point scale, SETFA [1]: 5 (5=80-100%)
percentage damage caused to the plant, five point scale, ECHCG [2]: 5 (5=80-100%)
percentage damage caused to the plant, five point scale, LOLPE [3]: 5 (5=80-100%)
percentage damage caused to the plant, five point scale, AVEFA [4]: 5 (5=80-100%)
percentage damage caused to the plant, five point scale, SETFA [5]: 5 (5=80-100%)
percentage damage caused to the plant, five point scale, ECHCG [6]: 5 (5=80-100%)
percentage damage caused to the plant, five point scale, LOLPE [7]: 5 (5=80-100%)
percentage damage caused to the plant, five point scale, AVEFA [8]: 5 (5=80-100%)

CC#Cc1cc(C)c(C2C(=O)CC3(CC2=O)CN(C(=O)COC)C3)c(OC)c1 [Compound 1.017]
percentage damage caused to the plant, five point scale, SETFA [1]: 5 (5=80-100%)
percentage damage caused to the plant, five point scale, ECHCG [2]: 5 (5=80-100%)
percentage damage caused to the plant, five point scale, LOLPE [3]: 5 (5=80-100%)
percentage damage caused to the plant, five point scale, AVEFA [4]: 5 (5=80-100%)
percentage damage caused to the plant, five point scale, SETFA [5]: 5 (5=80-100%)
percentage damage caused to the plant, five point scale, ECHCG [6]: 4 (4=60-79%)
percentage damage caused to the plant, five point scale, LOLPE [7]: 5 (5=80-100%)
percentage damage caused to the plant, five point scale, AVEFA [8]: 5 (5=80-100%)

CC#Cc1cc(C)c(C2C(=O)CC3(CC2=O)CN(C(=O)NC(=O)c2ccccn2)C3)c(OC)c1 [Compound 1.022]
percentage damage caused to the plant, five point scale, SETFA [1]: 5 (5=80-100%)
percentage damage caused to the plant, five point scale, ECHCG [2]: 4 (4=60-79%)
percentage damage caused to the plant, five point scale, LOLPE [3]: 3 (3=40-59%)
percentage damage caused to the plant, five point scale, AVEFA [4]: 2 (2=20-39%)
percentage damage caused to the plant, five point scale, SETFA [5]: 5 (5=80-100%)
percentage damage caused to the plant, five point scale, ECHCG [6]: 5 (5=80-100%)
percentage damage caused to the plant, five point scale, LOLPE [7]: 5 (5=80-100%)
percentage damage caused to the plant, five point scale, AVEFA [8]: 5 (5=80-100%)

CC#Cc1cc(C)c(C2C(=O)CC3(CC2=O)CN(C(=O)C(F)F)C3)c(OC)c1 [Compound 1.024]
percentage damage caused to the plant, five point scale, SETFA [1]: 5 (5=80-100%)
percentage damage caused to the plant, five point scale, ECHCG [2]: 5 (5=80-100%)
percentage damage caused to the plant, five point scale, LOLPE [3]: 5 (5=80-100%)
percentage damage caused to the plant, five point scale, AVEFA [4]: 5 (5=80-100%)
percentage damage caused to the plant, five point scale, SETFA [5]: 5 (5=80-100%)
percentage damage caused to the plant, five point scale, ECHCG [6]: 5 (5=80-100%)
percentage damage caused to the plant, five point scale, LOLPE [7]: 5 (5=80-100%)
percentage damage caused to the plant, five point scale, AVEFA [8]: 5 (5=80-100%)

CC#Cc1cc(Cl)c(C2C(=O)CC3(CC2=O)CN(C(=O)C(C)(C)C)C3)c(OC)c1 [Compound 1.202]
percentage damage caused to the plant, five point scale, SETFA [1]: 5 (5=80-100%)
percentage damage caused to the plant, five point scale, ECHCG [2]: 5 (5=80-100%)
percentage damage caused to the plant, five point scale, LOLPE [3]: 5 (5=80-100%)
percentage damage caused to the plant, five point scale, AVEFA [4]: 5 (5=80-100%)
percentage damage caused to the plant, five point scale, SETFA [5]: 5 (5=80-100%)
percentage damage caused to the plant, five point scale, ECHCG [6]: 5 (5=80-100%)
percentage damage caused to the plant, five point scale, LOLPE [7]: 5 (5=80-100%)
percentage damage caused to the plant, five point scale, AVEFA [8]: 5 (5=80-100%)

CC#Cc1cc(C)c(C2C(=O)CC3(CC2=O)CN(C(=O)c2ccccn2)C3)c(OC)c1 [Compound 1.016]
percentage damage caused to the plant, five point scale, SETFA [1]: 5 (5=80-100%)
percentage damage caused to the plant, five point scale, ECHCG [2]: 5 (5=80-100%)
percentage damage caused to the plant, five point scale, LOLPE [3]: 5 (5=80-100%)
percentage damage caused to the plant, five point scale, AVEFA [4]: 5 (5=80-100%)
percentage damage caused to the plant, five point scale, SETFA [5]: 5 (5=80-100%)
percentage damage caused to the plant, five point scale, ECHCG [6]: 5 (5=80-100%)
percentage damage caused to the plant, five point scale, LOLPE [7]: 5 (5=80-100%)
percentage damage caused to the plant, five point scale, AVEFA [8]: 5 (5=80-100%)

COc1cc(-c2ccc(F)cc2)cc(C)c1C1C(=O)CC2(CC1=O)CN(C(C)=O)C2 [Compound 1.203]
percentage damage caused to the plant, five point scale, SETFA [1]: 5 (5=80-100%)
percentage damage caused to the plant, five point scale, ECHCG [2]: 5 (5=80-100%)
percentage damage caused to the plant, five point scale, LOLPE [3]: 4 (4=60-79%)
percentage damage caused to the plant, five point scale, AVEFA [4]: 5 (5=80-100%)
percentage damage caused to the plant, five point scale, SETFA [5]: 5 (5=80-100%)
percentage damage caused to the plant, five point scale, ECHCG [6]: 5 (5=80-100%)
percentage damage caused to the plant, five point scale, LOLPE [7]: 5 (5=80-100%)
percentage damage caused to the plant, five point scale, AVEFA [8]: 5 (5=80-100%)

CC#Cc1cc(C)c(C2C(=O)CC3(CC2=O)CN(C(=O)COC)C3)c(C)c1 [Compound 1.005]
percentage damage caused to the plant, five point scale, SETFA [1]: 5 (5=80-100%)
percentage damage caused to the plant, five point scale, ECHCG [2]: 5 (5=80-100%)
percentage damage caused to the plant, five point scale, LOLPE [3]: 5 (5=80-100%)
percentage damage caused to the plant, five point scale, AVEFA [4]: 5 (5=80-100%)
percentage damage caused to the plant, five point scale, SETFA [5]: 5 (5=80-100%)
percentage damage caused to the plant, five point scale, ECHCG [6]: 5 (5=80-100%)
percentage damage caused to the plant, five point scale, LOLPE [7]: 5 (5=80-100%)
percentage damage caused to the plant, five point scale, AVEFA [8]: 5 (5=80-100%)
